# From article PMC8877724 (Journal of medicinal chemistry, 2020)
# “Also recorded” adds a separate entry of the source. Read-outs that look alike come from different tables or passages of the source.
# What was measured:
# [1] = Reaction with excess cysteamine monitored by 1H NMR; type: physicochemical
# [2] = test system: NF-κB signaling in A549 cells bearing a stably transfected NF-κB-driven luciferase reporter gene; assay: NF-κB luciferase reporter assay, TNF-α induced; type: cell-based; conditions: tested at 5-20 μM, 20 μM the highest concentration tested
# [3] = test system: NF-κB signaling in HEK293 cells containing a stably transfected NF-κB-driven SEAP reporter gene; assay: NF-κB secreted alkaline phosphatase; type: cell-based, human; conditions: tested at 1-7.5 μM, SEAP reporter assay
# Vero cells = assay: Vero cell viability assay; type: cell-based, African green monkey; conditions: 48 h
# La antigen = target: T1, La antigen (Homo sapiens, UniProt P05455); conditions: cited from earlier work
# T1 sequence (P05455 100-324 limits assumed): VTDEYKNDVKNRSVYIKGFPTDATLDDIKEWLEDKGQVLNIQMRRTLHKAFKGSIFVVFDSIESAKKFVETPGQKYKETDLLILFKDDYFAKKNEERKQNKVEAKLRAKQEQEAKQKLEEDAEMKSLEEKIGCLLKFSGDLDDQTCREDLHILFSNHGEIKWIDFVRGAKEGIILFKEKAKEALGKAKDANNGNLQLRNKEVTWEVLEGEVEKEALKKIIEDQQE
# HEK293/NF-κB-SEAP cells = assay: Cellular cytotoxicity accompanying the SEAP reporter assay; type: cell-based, human; conditions: 7.5 μM
# [4] = cited from earlier work
# A549/NF-κB-luc cells = conditions: 10 μM, A549/NF-κB-luc assay; cited from earlier work
molecule,measurement,setting,value
"3-methylene-9-phenyl-3,3a,4,5-tetrahydroazuleno[4,5-b]furan-2,8(7H,9bH)-dione [Compound S17]",Half-life,"[1]; HSCH2CH2NH2 (15 equiv), CDCl3 (0.006 M), rt",7 min
"C=C1C(=O)N[C@@H]2C3=C(c4ccccc4)C(=O)CC3=C(C)CC[C@@H]12 (relative stereo) [Compound 45, (3aS*,9bS*)-6-Methyl-3-methylene-9-phenyl-3,3a,4,5-tetrahydro-1H-azuleno[4,5-b]pyrrole-2,8(7H,9bH)-dione]",NF-κB inhibition (in words),[2],did not inhibit NF-κB signaling; also recorded: no NF-κB inhibition
"C=C1C(=O)N[C@@H]2C3=CC(=O)CC3=C(C)CC[C@@H]12 (relative stereo) [Compound 47, (3aS*,9bS*)-6-Methyl-3-methylene-1,3a,4,5,7,9b-hexahydro-2H-azuleno[4,5-b]pyrrole-2,8(3H)-dione]",NF-κB inhibition (in words),[2],did not inhibit NF-κB signaling; also recorded: little or no inhibition
same,NF-κB inhibition (in words),[3],little or no inhibition
same,cytotoxicity (in words),Vero cells,low cytotoxicity
"C=C1C(=O)N(C)[C@@H]2C3=C(c4ccccc4)C(=O)CC3=C(C)CC[C@@H]12 (relative stereo) [Compound 48, (3aS*,9bS*)-1,6-Dimethyl-3-methylene-9-phenyl-1,3a,4,5,7,9b-hexahydro-2H-azuleno[4,5-b]pyrrole-2,8(3H)-dione]",NF-κB inhibition (in words),[2],no inhibitory activities
"C=C1C(=O)N(c2ccccc2)[C@@H]2C3=C(c4ccccc4)C(=O)CC3=C(C)CC[C@@H]12 (relative stereo) [Compound 49, (3aS*,9bS*)-6-Methyl-3-methylene-1,9-diphenyl-1,3a,4,5,7,9b-hexahydro-2H-azuleno[4,5-b]pyrrole-2,8(3H)-dione]",NF-κB inhibition (in words),[2],no inhibitory activities; also recorded: little NF-κB inhibitory activity; also recorded: no NF-κB inhibition
"C=C1C(=O)N(c2ccc(OC)cc2)[C@@H]2C3=C(c4ccccc4)C(=O)CC3=C(C)CC[C@@H]12 (relative stereo) [Compound 52, (3aS*,9bS*)-1-(4-Methoxyphenyl)-6-methyl-3-methylene-9-phenyl-1,3a,4,5,7,9b-hexahydro-2H-azuleno[4,5-b]pyrrole-2,8(3H)-dione]",NF-κB inhibition (in words),[2],no inhibitory activities; also recorded: little NF-κB inhibitory activity; also recorded: no NF-κB inhibition
"C=C1C(=O)N(S(=O)(=O)c2ccc(C)cc2)[C@@H]2C3=C(c4ccccc4)C(=O)CC3=C(C)CC[C@@H]12 (relative stereo) [Compound 54, (3aS*,9bS*)-6-Methyl-3-methylene-9-phenyl-1-tosyl-1,3a,4,5,7,9b-hexahydro-2H-azuleno[4,5-b]pyrrole-2,8(3H)-dione]",time to complete reaction with cysteamine,"[1]; cysteamine (15 equiv), CDCl3, rt, disappearance of methylene resonances by 1H NMR",less than 10 min
C=CC(=O)N1CCC[C@@H](n2nc(-c3ccc(Oc4ccccc4)cc3)c3c(N)ncnc32)C1 [Ibrutinib],ALARM NMR result,La antigen,ALARM NMR negative
"C=C1C(=O)O[C@@H]2[C@H]3O[C@]3(C)CC/C=C(\C)CC[C@@H]12 [PTL, parthenolide]",cytotoxicity (in words),HEK293/NF-κB-SEAP cells,moderate level of cytotoxicity
same,time to complete reaction with cysteamine,[4],less than 5 min
same,cytotoxicity (in words),A549/NF-κB-luc cells,no cytotoxicity
